The values that follow are results of earlier work, collected in paper PMC8875074, “Development of Bactericidal Peptides against Multidrug-Resistant Acinetobacter baumannii with Enhanced Stability and Low Toxicity” (International Journal of Molecular Sciences, 2022).

The conditions of the series: cited from earlier work. An excerpt: A pair of test peptides, TP2-5 and TP2-6, were selected from a previous design based on tilapia piscidin 2 (TP2). […] Both TP2-5 and TP2-6 are nonhaemolytic and noncytotoxic an ...

On to “GECIWDAIFHGAKHFLHRLVNP [TP2, tilapia piscidin 2]”, for which the antimicrobial activity entry was “without antimicrobial activity” and the net positive charge result is “negligible or no net positive charge”.
